We go through 23 compounds from patent US5753709A, “N-acyl-2 aryl cyclopropylmethylamine derivatives as melatonergics” (Bristol-Myers Squibb Company, priority 1996, dated 1998).

pIC50: −log10 of the molar value.

T1 sequence (P48039 whole entry): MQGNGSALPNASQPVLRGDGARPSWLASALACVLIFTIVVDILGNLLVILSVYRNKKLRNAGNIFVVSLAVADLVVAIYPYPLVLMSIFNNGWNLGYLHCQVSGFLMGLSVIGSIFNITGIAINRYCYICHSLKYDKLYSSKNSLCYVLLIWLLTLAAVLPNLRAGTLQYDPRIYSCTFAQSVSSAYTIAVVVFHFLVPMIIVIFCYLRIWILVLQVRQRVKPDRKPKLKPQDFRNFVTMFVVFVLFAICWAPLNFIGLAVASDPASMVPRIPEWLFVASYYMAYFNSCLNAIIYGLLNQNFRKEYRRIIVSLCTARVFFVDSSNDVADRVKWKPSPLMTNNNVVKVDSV

The test system of the first experiment is rats.
Assay: not given
The settings on record: exogenous administration; cited from earlier work.
Consider `COc1ccc2[nH]cc(CCNC(C)=O)c2c1` [melatonin, N-acetyl-5-methoxytryptamine], for which the “effect on circadian rhythms” value was “found to synchronize circadian rhythms in rats”.

The next experiment addresses T1, human melatonin receptor (human ML1A) (Homo sapiens, UniProt P48039).
T1 construct: expressed in transfected cells; host or cells: COS-1 cells (transient, pcDNAI, DEAE-dextran); membrane homogenates
In words: Melatonergic binding: displacement of 2-[125I]-iodomelatonin at the human melatonin receptor (human ML1A in COS-1 membranes). Conditions: Table 4; displacement of 2[125I]-Iodomelatonin (100 pM), 37° C., 1 hour. On the procedure:
The melatonergic binding of the compounds of Formula I was determined by a modification of the method of Reppert, S. M. et al. (Neuron, Volume 13, pages 1177-1185, 1994). […] The reagents, membranes, and other parameters used in the assay are described below:
(a) 50 mM Tris buffer containing 12.5 mM MgCl2, and 2 mM EDTA (pH 7.4 at 37° C.).
(b) Wash buffer: 20 mM Tris base containing 2 mM MgCl2 (pH 7.4 at room temperature).
(c) 6-Chloromelatonin (10^-5 M final concentration).
(d) 2-[^125 I]-Iodomelatonin (100 pM final concentration). (Source: NEN) Membrane preparation: The cDNA (human ML1A) in pcDNAI was introduced into COS-1 cells by the DEAE-dextran method. Three days later, after media removal, the plates were washed with buffered saline; the cells removed using Hank's balanced salt solution and pelleted. The supernant was discarded and the pellets frozen. For membrane homogenates, the pellets were thawed and resuspended in TME buffer, Tris base, MgCl2, EDTA (pH 7.4 at 37° C.), and supplemented with aprotinin, leupeptin, and phenylmethylsulfonyl fluoride. The cells were homogenized and centrifuged; the resulting pellet resuspended in TME and frozen. At assay, the small aliquot was thawed on ice and resuspended in TME buffer. Incubation: 37° C. for 1 hour. Reaction is terminated by filtration.
A word on the pIC50: it is the negative decadic logarithm of the IC50, by convention in mol/L. Compound `CCCC(=O)NC[C@@H]1C[C@H]1c1cccc(OC)c1` (relative stereo) [Example 2, (trans)-N-[[2-(3-Methoxyphenyl)cyclopropyl]methyl] butanamide] showed a pIC50 of more than 8.30.
The same measure, in the same setting: as for `COc1ccc(F)c([C@@H]2C[C@H]2CNC(=O)C(C)C)c1` (relative stereo) [Example 1, (trans)-N-[[2-(2-Fluoro-5-methoxyphenyl)cyclopropyl]methyl]-2-methylpropanamide], the figure is 6.60 to 7.40; as for `CCCCC(=O)NC[C@@H]1C[C@H]1c1cccc(OC)c1` (relative stereo) [Example 25], 6.60 to 7.40.
On the same count and under the same terms, the result for `COc1cccc([C@@H]2C[C@H]2CNC(C)=O)c1` (relative stereo) [Example 19, (trans)-N-[[2-(3-Methoxyphenyl)cyclopropyl]methyl] acetamide] reads 7.40 to 8.30; that for `COc1cccc([C@@H]2C[C@H]2CNC(=O)C(C)C)c1` (relative stereo) [Example 21], 7.40 to 8.30.

Still in this experiment, the particulars now being: Table 5; displacement of 2[125I]-Iodomelatonin (100 pM), 37° C., 1 hour.
Consider `CCCC(=O)NC[C@@H]1C[C@H]1c1cccc(Br)c1` (relative stereo) [Example 73, (trans)-N-[[2-(3-Bromophenyl)cycloprop-1-yl]methyl] butanamide], for which the pIC50 was 7.40 to 8.30.
On the same count and under the same terms, the result for `CCCC(=O)NC[C@@H]1C[C@H]1c1cccc(OCCO)c1` (relative stereo) [Example 15] reads 6.60 to 7.40; that for `CC(=O)NC[C@@H]1C[C@H]1c1cccc(C)c1` (relative stereo) [Example 78, (trans)-N-[[2-(3-Methylphenyl)cycloprop-1-yl]methyl] acetamide], 6.60 to 7.40.
Same read-out and setting: the result for `CCCC(=O)NC[C@@H]1C[C@H]1c1cccc(OCC=C(C)CCC=C(C)C)c1` (relative stereo) [Example 99, (trans)-N-[[2-[3[(3-Dimethylocta-2,6-dien-1-yl)oxy]phenyl]cycloprop-1-yl]methyl] butanamide] reads 7.40 to 8.30; that for `C=CCOc1cccc([C@@H]2C[C@H]2CNC(=O)CCC)c1` (relative stereo) [Example 7b, (trans)-N-[[2-[3-(2-Propenyloxy)phenyl]cyclopropyl]methyl] butanamide], 7.40 to 8.30.
`CCCC(=O)NC[C@@H]1C[C@H]1c1cccc(OCCC(C)CC(C)(C)C)c1` (relative stereo) [Example 121] had a pIC50 of 7.40 to 8.30.
Still for that read-out and setting: the result for `CCCC(=O)NC[C@@H]1C[C@H]1c1cccc(OCCCCCc2ccccc2)c1` (relative stereo) [Example 110, (trans)-N-[[2-[3-[(5-Phenylpent-1-yl)oxy]phenyl]cycloprop-1-yl]methyl] butanamide] reads more than 8.30.
Compound `CCCC(=O)NC[C@@H]1C[C@H]1c1cccc(OCC=C(C)CCC=C(C)CCC=C(C)C)c1` (relative stereo) [Example 103, (trans)-N-[[2-[3-[(3-,7,11-Trimethyldodeca-2,6,10-trien-1-yl)oxy]phenyl]cycloprop-1-yl]methyl] butanamide] had a pIC50 of more than 8.30.
The same measure, in the same setting: as for `CCCC(=O)NC[C@@H]1C[C@H]1c1cccc(OCCc2ccccc2F)c1` (relative stereo) [Example 128, (trans)-N-[[2-[3-[2-(2-Fluorophenyl)ethoxy]phenyl]cycloprop-1-yl]methyl] butanamide], the figure is 7.40 to 8.30; as for `CCCC(=O)NC[C@@H]1C[C@H]1c1cc(OC(F)(F)F)ccc1Br` (relative stereo) [Example 72], 6.60 to 7.40; as for `CCCCCCCCCCOc1cccc([C@@H]2C[C@H]2CNC(=O)CCC)c1` (relative stereo) [Example 56, (trans)-N-[[2-[(3-Decyloxy)phenyl]cyclopropyl]methyl] butanamide], 7.40 to 8.30.
Consider `CCCC(=O)NC[C@@H]1C[C@H]1c1cccc(OCCCCCCCc2ccccc2)c1` (relative stereo) [Example 46, (trans)-N-[[2-[3-[(7-Phenylheptyl)oxy]phenyl]cyclopropyl]methyl] butanamide], for which the pIC50 is 7.40 to 8.30.
Still for that read-out and setting: the result for `CCCCCCCCCOc1cccc([C@@H]2C[C@H]2CNC(=O)CCC)c1` (relative stereo) [Example 55, (trans)-N-[[2-[3-(Nonyloxy)phenyl]cyclopropyl]methyl] butanamide] reads 6.60 to 7.40; that for `CCCCCCCCCCCCOc1cccc([C@@H]2C[C@H]2CNC(=O)CCC)c1` (relative stereo) [Example 58, (trans)-N-[[2-[(3-Dodecyloxy)phenyl]cyclopropyl]methyl] butanamide], 7.40 to 8.30.
For the compound `CCCC(=O)NC[C@@H]1C[C@H]1c1cc(OCCCc2cccc(OC)c2)ccc1I` (single isomer, unassigned) [Example 93, (-)-(trans)-N-[[2-[2-Iodo-5-[3-(3-methoxyphenyl)propoxy]phenyl]cycloprop-1-yl)methyl] butanamide], the pIC50 was 7.40 to 8.30.
The same measure, in the same setting: the result for `CCCCCCCCCCCOc1cccc([C@@H]2C[C@H]2CNC(=O)CCC)c1` (relative stereo) [Example 57, (trans)-N-[[2-[(3-Undecyloxy)phenyl]cyclopropyl]methyl] butanamide] reads 7.40 to 8.30.
Still for that read-out and setting: the result for `CCCC(=O)NC[C@@H]1C[C@H]1c1cccc(OCCCC2CCCC2)c1` (relative stereo) [Example 120, (trans)-N-[[2-[3-[(3-Cyclopentylprop-1-yl)oxy]phenyl]cycloprop-1-yl]methyl] butanamide] reads more than 8.30.
